52 compounds from patent US20050288299A1, “Azaindole derivatives as inhibitors of p38 kinase” (priority 2002, published 2005) can be followed below.

The structures appear in SMILES notation.

Chain of p38α kinase (Q16539 whole entry): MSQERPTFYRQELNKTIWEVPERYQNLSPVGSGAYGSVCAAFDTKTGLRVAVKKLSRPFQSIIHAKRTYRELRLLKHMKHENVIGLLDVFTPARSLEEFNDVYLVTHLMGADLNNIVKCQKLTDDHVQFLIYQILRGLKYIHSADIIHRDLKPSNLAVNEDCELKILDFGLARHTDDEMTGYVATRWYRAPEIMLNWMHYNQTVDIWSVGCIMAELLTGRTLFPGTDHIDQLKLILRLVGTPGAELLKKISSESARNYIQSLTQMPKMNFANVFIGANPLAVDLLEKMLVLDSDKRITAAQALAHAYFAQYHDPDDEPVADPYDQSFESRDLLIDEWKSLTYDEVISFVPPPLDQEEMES

This test deals with p38α kinase (Homo sapiens, UniProt Q16539). Kind of test: p38α Flash Plate Assay (p38 kinase inhibition). It is filed as biochemical. To be noted: in vitro; 150 μM ATP, 0.05 mM biotinylated peptide substrate, 5 nM enzyme, 60 minute incubation at 30° Celsius; read-out: P38 α-FLASHPLATE IC50. Here is the method:
Assay for p38 Kinase Inhibition—p38α Flash Plate Assay
The compounds to be tested were solubilized in DMSO and diluted with water to the desired concentrations. The p38 kinase was diluted to 20 nM into a buffer containing 20 mM MOPS, pH 7.0, 25 mM beta-glycerol phosphate, 2 mg/ml gelatin, 0.5 mM EGTA (ethylene-bis-(oxyethylenenitrilo)-tetraacetic acid), and 4 mM dithiothreitol (DTT).
The reaction was carried out by mixing 20 μl test compound with 10 μl of a substrate cocktail containing 0.2 mM biotinylated peptide substrate and 0.6 mM ATP (+100 μCi/ml gamma-^33P-ATP) in a 5× assay buffer. The reaction was initiated by the addition of 10 μl of p38 kinase. Final assay conditions were 25 mM MOPS, pH 7.0, 26.25 mM beta-glycerol phosphate, 80 mM KCl, 22 mM MgCl2, 3 mM MgSO4, 1 mg/ml gelatin, 0.625 mM EGTA, 1 mM DTT, 0.05 mM peptide substrate, 150 μM ATP, and 5 nM enzyme. After a 60 minute incubation at 30° Celsius, the reaction was stopped by the addition of 10 μl per reaction of 0.25 M phosphoric acid.
A portion of the reaction was transferred to a streptavidin-coated Flash Plate (Perkin Elmer); the Flash Plate was incubated for 60 minutes at 30° Celsius and then washed 3× with PBS containing 0.01% Tween-20.
Counts incorporated are determined on a scintillation counter. Relative enzyme activity was calculated by subtracting background counts (counts measured in the absence of enzyme) from each result, and comparing the resulting counts to those obtained in the absence of inhibitor. IC50 values were determined with curve-fitting plots available with common software packages. The IC50 was expressed as the concentration of compound which inhibited the enzyme activity by 50%.
For `COc1nc2[nH]cc(C(=O)C(=O)N3CCCC3)c2cc1C(=O)N1C[C@H](C)N(Cc2ccc(F)cc2)C[C@H]1C` [No. 5, 1-{5-[4-(4-Fluoro-benzyl)-2R,5S-dimethyl-piperazine-1-carbonyl]-6-methoxy-1H-pyrrolo[2,3-b]pyridin-3-yl}-2-pyrrolidin-1-yl-ethane-1,2-dione], the half-inhibitory concentration (IC50) (in general, the midpoint of a concentration-inhibition curve) was determined as 30 nM.
As for `COc1nc2[nH]c(C)c(C(=O)C(=O)N3CCCC3)c2cc1C(=O)N1CCC(Cc2ccc(F)cc2)CC1` [compound 15], the figure is 38 nM; as for `CCNC(=O)C(=O)c1c[nH]c2nc(OC)c(C(=O)N3CCC(Cc4ccc(F)cc4)CC3)cc12` [compound 16], 39 nM.
With `COc1nc2[nH]cc(C(=O)C(N)=O)c2cc1C(=O)N1CCC(Cc2ccc(F)cc2)CC1` [compound 17], the concentration for half-maximal inhibition (IC50) is 57 nM.
For `CNC(=O)C(=O)c1c[nH]c2nc(OC)c(C(=O)N3C[C@H](C)N(Cc4ccc(F)cc4)C[C@H]3C)cc12` [compound 18] the value was 20 nM; for `COc1nc2[nH]cc(C(=O)C(=O)N(C)C)c2cc1C(=O)N1C[C@H](C)N(Cc2ccc(F)cc2)C[C@H]1C` [compound 19], 8.2 nM; for `CCN(C)C(=O)C(=O)c1c[nH]c2nc(OC)c(C(=O)N3C[C@H](C)N(Cc4ccc(F)cc4)C[C@H]3C)cc12` [compound 20], 12 nM.
For `COc1nc2[nH]cc(C(=O)C(=O)N3CC[C@@H](O)C3)c2cc1C(=O)N1C[C@H](C)N(Cc2ccc(F)cc2)C[C@H]1C` [compound 21] the value was 10 nM; for `COc1nc2[nH]cc(C(=O)C(=O)N(C)C)c2cc1C(=O)N1C[C@H](C)N(C(c2ccccc2)c2ccccc2)C[C@H]1C` [compound 22], 70 nM; for `COc1nc2[nH]cc(C(=O)C(=O)N3CCCC3)c2cc1C(=O)N1C[C@H](C)N(C(c2ccccc2)c2ccccc2)C[C@H]1C` [compound 23], 120 nM.
As for `CNC(=O)C(=O)c1c[nH]c2nc(OC)c(C(=O)N3C[C@H](C)N(C(c4ccccc4)c4ccccc4)C[C@H]3C)cc12` [compound 24], the figure is 42 nM; as for `COc1nc2[nH]cc(C(=O)C(=O)NC3CCCC3)c2cc1C(=O)N1C[C@H](C)N(C(c2ccccc2)c2ccccc2)C[C@H]1C` [compound 25], 130 nM; as for `COc1nc2[nH]cc(C(=O)C(F)(F)F)c2cc1C(=O)N1CCC(Cc2ccc(F)cc2)CC1` [compound 26], 95 nM.
Take `COc1nc2[nH]cc(C(=O)C(N)=O)c2cc1C(=O)N1C[C@H](C)N(Cc2ccc(F)cc2)C[C@H]1C` [compound 30]: the concentration for half-maximal inhibition (IC50) was found to be 10 nM.
For `COc1nc2[nH]cc(C(=O)C(N)=O)c2cc1C(=O)N1CCN(Cc2ccc(F)cc2)C[C@H]1C` [compound 31] the value was 100 nM; for `CNC(=O)C(=O)c1c[nH]c2nc(OC)c(C(=O)N3CCN([C@H](C)c4ccc(F)cc4)C[C@H]3C)cc12` [compound 32], 30 nM; for `COc1nc2[nH]cc(C(=O)C(=O)O)c2cc1C(=O)N1CCC(Cc2ccc(F)cc2)CC1` [compound 33], 15 nM.
For `CCOc1nc2[nH]cc(C(=O)C(=O)NC)c2cc1C(=O)N1C[C@H](C)N(Cc2ccc(F)cc2)C[C@H]1C` [compound 34] the value was 30 nM.
As for `CCOc1nc2[nH]cc(C(=O)C(N)=O)c2cc1C(=O)N1C[C@H](C)N(Cc2ccc(F)cc2)C[C@H]1C` [compound 35], the figure is 20 nM.
`CCOc1nc2[nH]cc(C(=O)C(=O)NC)c2cc1C(=O)N1CCC(Cc2ccc(F)cc2)CC1` [compound 36]: the half-maximal inhibitory concentration (IC50) worked out at 64 nM.
For `CCOc1nc2[nH]cc(C(=O)C(N)=O)c2cc1C(=O)N1CCC(Cc2ccc(F)cc2)CC1` [compound 37] the value was 67 nM.
Consider `COc1ccc(Cn2ccc3cc(C(=O)N4C[C@H](C)N(Cc5ccc(F)cc5)C[C@H]4C)c(OC)nc32)cc1` [compound 38], for which the half-inhibitory concentration (IC50) worked out at 1500 nM.
As for `CNC(=O)C(=O)c1cn(Cc2ccc(OC)cc2)c2nc(OC)c(C(=O)N3C[C@H](C)N(Cc4ccc(F)cc4)C[C@H]3C)cc12` [compound 39], the figure is 610 nM.
As for `Cc1nc2[nH]ccc2cc1C(=O)N1C[C@H](C)N(Cc2ccc(F)cc2)C[C@H]1C` [compound 40], the figure is 420 nM; as for `COc1nc2c(cc1C(=O)N1C[C@H](C)N(Cc3ccc(F)cc3)C[C@H]1C)c(C(=O)C(N)=O)cn2C` [compound 41], 20 nM.
Turning to `CNC(=O)C(=O)c1cn(C)c2nc(OC)c(C(=O)N3C[C@H](C)N(Cc4ccc(F)cc4)C[C@H]3C)cc12` [compound 42], the half-inhibitory concentration (IC50) was found to be 20 nM.
For `COc1nc2c(cc1C(=O)N1C[C@H](C)N(Cc3ccc(F)cc3)C[C@H]1C)c(C(=O)C(=O)N(C)C)cn2C` [compound 43] the value was 10 nM; for `CCNC(=O)C(=O)c1cn(C)c2nc(OC)c(C(=O)N3C[C@H](C)N(Cc4ccc(F)cc4)C[C@H]3C)cc12` [compound 44], 70 nM.
As for `COc1nc2c(cc1C(=O)N1C[C@H](C)N(Cc3ccc(F)cc3)C[C@H]1C)c(C(=O)C(=O)N(C)OC)cn2C` [compound 45], the figure is 20 nM; as for `COc1nc2c(cc1C(=O)N1C[C@H](C)N(Cc3ccc(F)cc3)C[C@H]1C)c(C(=O)C(=O)N1CCCC1)cn2C` [compound 46], 50 nM.
Turning to `CCNC(=O)C(=O)c1c[nH]c2nc(OC)c(C(=O)N3C[C@H](C)N(Cc4ccc(F)cc4)C[C@H]3C)cc12` [compound 47], the half-inhibitory concentration (IC50) is 20 nM.
As for `COc1nc2[nH]cc(C(=O)C(=O)NC(C)C)c2cc1C(=O)N1C[C@H](C)N(Cc2ccc(F)cc2)C[C@H]1C` [compound 48], the figure is 50 nM.
For `COc1nc2c(cc1C(=O)N1C[C@H](C)N(Cc3ccc(F)cc3)C[C@H]1C)c(C(=O)C(=O)NC(C)C)cn2C` [compound 49] the value was 60 nM.
For `CONC(=O)C(=O)c1cn(C)c2nc(OC)c(C(=O)N3C[C@H](C)N(Cc4ccc(F)cc4)C[C@H]3C)cc12` [compound 50] the value was 40 nM; for `CCNC(=O)C(=O)c1cn(COC)c2nc(OC)c(C(=O)N3C[C@H](C)N(Cc4ccc(F)cc4)C[C@H]3C)cc12` [compound 51], 60 nM; for `COCn1cc(C(=O)C(N)=O)c2cc(C(=O)N3C[C@H](C)N(Cc4ccc(F)cc4)C[C@H]3C)c(OC)nc21` [compound 53], 30 nM.
As for `CNC(=O)C(=O)c1cn(COC)c2nc(OC)c(C(=O)N3C[C@H](C)N(Cc4ccc(F)cc4)C[C@H]3C)cc12` [compound 54], the IC50 turned out to be 50 nM.
With `COCn1cc(C(=O)C(=O)N(C)C)c2cc(C(=O)N3C[C@H](C)N(Cc4ccc(F)cc4)C[C@H]3C)c(OC)nc21` [compound 55], the 50% inhibitory concentration (IC50) is 20 nM.
For `COCn1cc(C(=O)C(=O)N2CCCC2)c2cc(C(=O)N3C[C@H](C)N(Cc4ccc(F)cc4)C[C@H]3C)c(OC)nc21` [compound 56] the value was 40 nM; for `CCNC(=O)C(=O)c1c[nH]c2nc(OCC)c(C(=O)N3C[C@H](C)N(Cc4ccc(F)cc4)C[C@H]3C)cc12` [compound 57], 30 nM.
For `CCOc1nc2[nH]cc(C(=O)C(=O)NC(C)C)c2cc1C(=O)N1C[C@H](C)N(Cc2ccc(F)cc2)C[C@H]1C` [compound 58] the value was 50 nM.
As for `CCOc1nc2[nH]cc(C(=O)C(=O)N3CCCC3)c2cc1C(=O)N1C[C@H](C)N(Cc2ccc(F)cc2)C[C@H]1C` [compound 59], the figure is 30 nM.
As for `Cc1nc2c(ccn2C)cc1C(=O)N1C[C@H](C)N(Cc2ccc(F)cc2)C[C@H]1C` [compound 60], the IC50 is 160 nM.
For `CNC(=O)C(=O)c1cn(C)c2nc(C)c(C(=O)N3C[C@H](C)N(Cc4ccc(F)cc4)C[C@H]3C)cc12` [compound 61] the value was 90 nM; for `CNC(=O)C(=O)c1c[nH]c2nc(C)c(C(=O)N3C[C@H](C)N(Cc4ccc(F)cc4)C[C@H]3C)cc12` [compound 62], 70 nM; for `Cc1nc2[nH]cc(C(=O)C(=O)N(C)C)c2cc1C(=O)N1C[C@H](C)N(Cc2ccc(F)cc2)C[C@H]1C` [compound 63], 30 nM.
For `CCNC(=O)C(=O)c1c[nH]c2nc(C)c(C(=O)N3C[C@H](C)N(Cc4ccc(F)cc4)C[C@H]3C)cc12` [compound 64] the value was 80 nM; for `Cc1nc2[nH]cc(C(=O)C(=O)N3CCCC3)c2cc1C(=O)N1C[C@H](C)N(Cc2ccc(F)cc2)C[C@H]1C` [compound 65], 80 nM.
As to `Cc1nc2[nH]cc(C(=O)C(N)=O)c2cc1C(=O)N1C[C@H](C)N(Cc2ccc(F)cc2)C[C@H]1C` [compound 66], the half-maximal inhibitory concentration (IC50) was found to be 80 nM.
As for `C[C@@H]1CN(Cc2ccc(F)cc2)[C@@H](C)CN1C(=O)c1ccc2[nH]ccc2n1` [compound 67], the figure is 750 nM.
As for `COC(=O)C(=O)c1c[nH]c2ccc(C(=O)N3C[C@H](C)N(Cc4ccc(F)cc4)C[C@H]3C)nc12` [compound 68], the figure is 760 nM; as for `C[C@@H]1CN(Cc2ccc(F)cc2)[C@@H](C)CN1C(=O)c1ccc2[nH]cc(C(=O)C(=O)O)c2n1` [compound 69], 700 nM.
